{
  "source": "paper PMC3701944",
  "about": "(Journal of medicinal chemistry, 2013)",
  "assay_type_in_all_cases": "biochemical",
  "key": {"[1]": {"target": "cloned human δ opioid receptor (DOP) (Homo sapiens, UniProt P41143)", "sequence (P41143 whole entry)": "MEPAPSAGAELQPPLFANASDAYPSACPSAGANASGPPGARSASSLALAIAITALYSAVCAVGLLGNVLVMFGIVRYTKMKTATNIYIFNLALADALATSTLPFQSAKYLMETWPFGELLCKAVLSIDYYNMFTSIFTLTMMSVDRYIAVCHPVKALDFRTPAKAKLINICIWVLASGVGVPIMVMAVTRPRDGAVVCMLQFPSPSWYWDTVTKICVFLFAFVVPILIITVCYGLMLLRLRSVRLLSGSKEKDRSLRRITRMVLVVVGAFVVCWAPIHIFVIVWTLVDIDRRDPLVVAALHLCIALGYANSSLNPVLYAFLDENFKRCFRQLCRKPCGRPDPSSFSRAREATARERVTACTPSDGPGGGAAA", "assay": "[35S]GTPγS binding assay, inhibition of DPDPE-stimulated binding"}, "[2]": {"target": "cloned human μ opioid receptor (MOP) (Homo sapiens, UniProt P35372)", "sequence (P35372 whole entry)": "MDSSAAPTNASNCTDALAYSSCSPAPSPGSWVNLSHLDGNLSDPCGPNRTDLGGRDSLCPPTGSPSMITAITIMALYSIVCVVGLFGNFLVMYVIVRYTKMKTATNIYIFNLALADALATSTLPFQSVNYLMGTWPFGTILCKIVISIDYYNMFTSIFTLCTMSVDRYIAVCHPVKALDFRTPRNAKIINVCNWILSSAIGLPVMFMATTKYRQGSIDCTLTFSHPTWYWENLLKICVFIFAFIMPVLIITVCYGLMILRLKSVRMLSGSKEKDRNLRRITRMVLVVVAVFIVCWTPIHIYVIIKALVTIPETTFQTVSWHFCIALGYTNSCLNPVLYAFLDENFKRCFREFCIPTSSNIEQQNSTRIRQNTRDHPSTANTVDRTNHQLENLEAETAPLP", "assay": "[35S]GTPγS binding assay, inhibition of DAMGO-stimulated binding"}, "[3]": {"target": "cloned human κ opioid receptor (KOP) (Homo sapiens, UniProt P41145)", "sequence (P41145 whole entry)": "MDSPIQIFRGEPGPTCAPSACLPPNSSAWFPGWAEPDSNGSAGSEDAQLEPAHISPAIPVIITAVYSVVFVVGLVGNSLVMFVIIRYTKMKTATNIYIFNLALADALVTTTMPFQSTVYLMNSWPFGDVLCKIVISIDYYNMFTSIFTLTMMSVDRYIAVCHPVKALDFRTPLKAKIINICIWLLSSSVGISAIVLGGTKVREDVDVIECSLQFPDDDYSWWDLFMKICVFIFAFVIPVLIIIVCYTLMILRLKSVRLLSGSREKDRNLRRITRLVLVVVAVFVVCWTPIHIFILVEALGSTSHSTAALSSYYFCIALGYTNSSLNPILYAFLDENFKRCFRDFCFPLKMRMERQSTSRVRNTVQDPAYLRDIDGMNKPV", "assay": "[35S]GTPγS binding assay, inhibition of U69,593-stimulated binding", "conditions": "for δ/κ: selectivity for κ relative to δ (fold)"}},
  "data": [
    {"molecule": "CC(C)[C@@H](CN1CCN(c2cccc(O)c2)[C@@H](C)C1)NC(=O)[C@H]1Cc2ccc(O)cc2CN1", "note": "[10a, (3R)-7-Hydroxy-N-[(1S)-1-{[(3S)-4-(3-hydroxyphenyl)-3-methylpiperazin-1-yl]methyl}-2-methylpropyl]-1,2,3,4-tetrahydroisoquinoline-3-carboxamide]", "values": [
      {"measurement": "Kb", "setting": "[1]", "result": "1310 ± 317", "unit": "nM"},
      {"measurement": "Kb", "setting": "[2]", "result": "74.2 ± 7.6", "unit": "nM"}
    ]},
    {"molecule": "CC(C)[C@@H](CN1CCN(c2cccc(O)c2)[C@H](C)C1)NC(=O)[C@H]1Cc2ccc(O)cc2CN1", "note": "[10b, (3R)-7-Hydroxy-N-[(1S)-1-[[(3R)-4-(3-hydroxyphenyl)-3-methylpiperazin-1-yl]methyl}-2-methylpropyl]-1,2,3,4-tetrahydroisoquinoline-3-carboxamide]", "values": [
      {"measurement": "Kb", "setting": "[1]", "result": "1550 ± 251", "unit": "nM"},
      {"measurement": "Kb", "setting": "[2]", "result": "49.4 ± 2.7", "unit": "nM"}
    ]},
    {"molecule": "Cc1cccc(Oc2ccc(C(=O)N[C@H](CN3CCN(c4cccc(O)c4)[C@@H](C)C3)C(C)C)c(C)c2)c1", "note": "[12f, N-[(1S)-1-{[(3S)-4-(3-Hydroxyphenyl)-3-methylpiperazin-1-yl]methyl}-2-methylpropyl]-2-methyl-4-(3-methylphenoxy)benzamide]", "values": [
      {"measurement": "Kb", "setting": "[1]", "result": "14 ± 3", "unit": "nM"},
      {"measurement": "Kb", "setting": "[2]", "result": "18 ± 3", "unit": "nM"}
    ]},
    {"molecule": "Cc1cccc(Oc2ccc(C(=O)N[C@H](CN3CCN(c4cccc(O)c4)[C@@H](C)C3)C(C)C)c(O)c2)c1", "note": "[12h, 2-Hydroxy-N-[(1S)-1-{[(3S)-4-(3-hydroxyphenyl)-3-methylpiperazin-1-yl]methyl}-2-methylpropyl]-4-(3-methylphenoxy)benzamide]", "values": [
      {"measurement": "Kb", "setting": "[1]", "result": "880 ± 320", "unit": "nM"},
      {"measurement": "Kb", "setting": "[3]", "result": "1.9 ± 0.4", "unit": "nM"},
      {"measurement": "Kb", "setting": "[2]", "result": "119 ± 28", "unit": "nM"}
    ]},
    {"molecule": "COc1cc(C(=O)N[C@H](CN2CCN(c3cccc(O)c3)[C@@H](C)C2)C(C)C)ccc1Oc1ccccc1O", "note": "[12i, 4-(2-Hydroxyphenoxy)-N-[(1S)-1-{[(3S)-4-(3-hydroxyphenyl)-3-methylpiperazin-1-yl]methyl}-2-methylpropyl]-3-methoxybenzamide]", "values": [
      {"measurement": "Kb", "setting": "[1]", "result": "117 ± 60", "unit": "nM"}
    ]},
    {"molecule": "CC(C)[C@@H](CN1CCN(c2cccc(O)c2)[C@@H](C)C1)NC(=O)c1ccc(Oc2ccccc2O)c(Cl)c1", "note": "[12j, 3-Chloro-4-(2-hydroxyphenoxy)-N-[(1S)-1-{[(3S)-4-(3-hydroxyphenyl)-3-methylpiperazin-1-yl]methyl}-2-methylpropyl]benzamide]", "values": [
      {"measurement": "Kb", "setting": "[1]", "result": "210 ± 82", "unit": "nM"},
      {"measurement": "Kb", "setting": "[3]", "result": "5 ± 0.82", "unit": "nM"},
      {"measurement": "Kb", "setting": "[2]", "result": "36 ± 9", "unit": "nM"}
    ]},
    {"molecule": "COc1cc(C(=O)N[C@H](CN2CCN(c3cccc(O)c3)[C@@H](C)C2)C(C)C)ccc1Oc1cc(C)ccc1O", "note": "[12k, 4-(2-Hydroxy-5-methylphenoxy)-N-[(1S)-1-{[(3S)-4-(3-hydroxyphenyl)-3-methylpiperazin-1-yl]methyl}-2-methylpropyl]-3-methoxybenzamide]", "values": [
      {"measurement": "Kb", "setting": "[1]", "result": "117 ± 80", "unit": "nM"},
      {"measurement": "Kb", "setting": "[2]", "result": "10.2 ± 3", "unit": "nM"}
    ]},
    {"molecule": "CC(C)[C@@H](CN1CCN(c2cccc(O)c2)[C@@H](C)C1)NC(=O)c1ccc(-c2ccccc2)cc1", "note": "[compound 22, N-[(1S)-1-{[(3S)-4-(3-Hydroxyphenyl)-3-methylpiperazin-1-yl]methyl}-2-methylpropyl]biphenyl-4-carboxamide]", "values": [
      {"measurement": "Kb", "setting": "[1]", "result": "258 ± 88", "unit": "nM"},
      {"measurement": "Kb", "setting": "[3]", "result": "1.87 ± 0.47", "unit": "nM"},
      {"measurement": "Kb", "setting": "[2]", "result": "8.69 ± 3", "unit": "nM"}
    ]},
    {"molecule": "CCCCc1ccc(C(=O)N[C@H](CN2CCN(c3cccc(O)c3)[C@@H](C)C2)C(C)C)cc1", "note": "[compound 23, 4-Butyl-N-[(1S)-1-{[(3S)-4-(3-hydroxyphenyl)-3-methylpiperazin-1-yl]methyl}-2-methylpropyl]benzamide]", "values": [
      {"measurement": "Kb", "setting": "[1]", "result": "230 ± 3", "unit": "nM"},
      {"measurement": "Kb", "setting": "[3]", "result": "2.8 ± 1", "unit": "nM"},
      {"measurement": "Kb", "setting": "[2]", "result": "21.1 ± 2", "unit": "nM"}
    ]},
    {"molecule": "COc1ccc(C(=O)N[C@H](CN2CCN(c3cccc(O)c3)[C@@H](C)C2)C(C)C)cc1OC", "note": "[compound 24, N-[(1S)-1-{[(3S)-4-(3-Hydroxyphenyl)-3-methylpiperazin-1-yl]methyl}-2-methylpropyl]-3,4-dimethoxybenzamide]", "values": [
      {"measurement": "Kb", "setting": "[1]", "result": "> 10000", "unit": "nM"},
      {"measurement": "Kb", "setting": "[3]", "result": "81.7 ± 30", "unit": "nM"},
      {"measurement": "δ/κ", "setting": "[3]; ratio of Ke values", "result": ">122"},
      {"measurement": "Kb", "setting": "[2]", "result": "334 ± 110", "unit": "nM"}
    ]},
    {"molecule": "N-(1S)-1-{[(3S)-4-(3-Hydroxyphenyl)-3-methylpiperazin-1-yl]methyl}-2-methylpropyl]-5-phenoxypyridine-2-carboxamide [compound 14]", "values": [
      {"measurement": "δ/κ", "setting": "[3]; ratio of Ke values", "result": 1119},
      {"measurement": "μ/κ", "setting": "[3]; ratio of Ke values, selectivity for κ relative to μ (fold)", "result": 38}
    ]}
  ]
}
